# Measurements as given in patent US4808603A, “3,5-diacyl-2,6-dialkyl-4-aryl-1,4-dihydropyridines, their use, and pharmaceutical compositions thereof” (Ciba-Geigy Corporation, priority 1985, dated 1989).
# pIC50: −log10 of the molar value.
# How the values were obtained:
# renally hypertonic rats = assay: reduction in blood pressure in renally hypertonic rats; assay type: in vivo; conditions: 2 hours after p.o. administration of 15 mg/kg
# Procedure: For example, 2 hours after p.o. administration of 15 mg/kg of 2,6-dimethyl-4-(3-nitrophenyl)-1,4-dihydropyridine-3,5dicarboxylic acid 3-methyl ester 5-[2-[N-(4-(4-fluorophenyl)-4-oxo-n-butyl)-N-methylamino]ethyl ester] to renally hypertonic rats, a reduction in blood pressure of approx. 45 mm Hg may be observed.
# [1] = system: isolated perfused mesenteric vessels of rats; assay: inhibition of noradrenalin-induced vasoconstriction in isolated perfused mesenteric vessels of rats; assay type: cell-based; conditions: Rattus norvegicus, in vitro
# Text: (§1) The compounds of the formula I and salts thereof have valuable pharmacological properties, especially in the cardiovascular field. […] 177, 21-30, (1965)] by way of the inhibition of potassium- and noradrenalininduced vasoconstriction, for example using 2,6-dimethyl-4-(3-nitrophenyl)-1,4-dihydropyridine-3,5-dicarboxylic acid 3-methyl ester 5-[2-[N-(4-(4-fluorophenyl)-4-oxo-n-butyl)-N-methylamino]ethyl ester] at a concentration of approx. 10^-8 mol/liter (IC50) for the inhibition of potassium-induced vasoconstriction, and at a concentration of approx. 3×10^-10 mol/liter (IC50) for the inhibition of noradrenalin-induced vasoconstriction. […] Pharmacol. 21, 301-304 (1982)], for example using 2,6-dimethyl-4-(3-nitrophenyl)-1,4-dihydropyridine-3,5-dicarboxylic acid 3-methyl ester 5-[2-[N-(4-(4-fluorophenyl)-4-oxo-n-butyl)-N-methylamino]ethyl ester] at a concentration of approx. 10^-8 mol/liter (IC50).
# [2] = system: isolated perfused mesenteric vessels of rats; assay: inhibition of potassium-induced vasoconstriction in isolated perfused mesenteric vessels of rats; assay type: cell-based; conditions: Rattus norvegicus, in vitro
# Text: as §1
# serotonin2 -receptors = biological target: T1, serotonin2 -receptors (Rattus norvegicus, UniProt P14842); assay: displacement of 3H-ketanserin from its bonding sites in membranes of rats' brains; assay type: binding; conditions: read-out: IC50, displacement of 3H-ketanserin from serotonin2-receptor bonding sites
# T1 construct: membranes of rats' brains; from tissue; host or cells: rat brain membranes
# Text: as §1
# T1 sequence (P14842 whole entry): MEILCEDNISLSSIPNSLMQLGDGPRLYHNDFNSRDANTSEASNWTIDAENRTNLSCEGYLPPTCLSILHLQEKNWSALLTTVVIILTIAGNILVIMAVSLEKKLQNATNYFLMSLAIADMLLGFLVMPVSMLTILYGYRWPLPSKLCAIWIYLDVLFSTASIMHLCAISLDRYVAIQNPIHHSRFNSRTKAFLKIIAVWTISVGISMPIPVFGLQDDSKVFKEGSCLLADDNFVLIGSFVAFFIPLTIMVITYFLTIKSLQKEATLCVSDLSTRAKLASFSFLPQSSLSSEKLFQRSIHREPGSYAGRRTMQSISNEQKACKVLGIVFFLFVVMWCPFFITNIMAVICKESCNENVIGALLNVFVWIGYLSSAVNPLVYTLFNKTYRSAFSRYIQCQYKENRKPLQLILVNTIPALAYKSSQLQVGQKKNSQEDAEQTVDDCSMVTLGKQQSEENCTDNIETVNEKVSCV
structure (smiles),measurement,setting,value
"COC(=O)C1=C(C)NC(C)=C(C(=O)OCCN(C)CCCC(=O)c2ccc(F)cc2)C1c1cccc([N+](=O)[O-])c1 (stereo not shown) [2,6-dimethyl-4-(3-nitrophenyl)-1,4-dihydropyridine-3,5-dicarboxylic acid 3-methyl ester 5-[2-[N-(4-(4-fluorophenyl)-4-oxo-n-butyl)-N-methylamino]ethyl ester]]",reduction in blood pressure,renally hypertonic rats,approx. 45 mm Hg
same,pIC50,[1],~9.52
same,pIC50,[2],~8.00
same,pIC50,serotonin2 -receptors,~8.00
